In patent US20110052676A1, “Composition For Delaying Cellular Senescence” (priority 2009, published 2011):

How the values were obtained:
Type in all cases: cell-based, Human
ATM = assay: H2O2 stress-induced premature senescence in epidermal keratinocytes, ATM expression (ELISA); settings: 1% treatment level, after 150 μM H2O2 for two hours, FIG. 2
Protocol: (§1) Human epidermal keratinocytes were seeded into culture flasks and grown at 37±2° C. and 5±1% CO2 using serum free Epilife media supplemented as recommended by the manufacturer. When a sufficient number of cells had been grown they were transferred to 96-well plates and cultured for a minimum of 24 hours to allow the cells to adhere to the well plates. After the initial 24-hour incubation, the media was changed to remove any non-adherent cells and the remaining cells were cultured until confluent, with a media change every 48 to 72 hours as needed.
(§2) Premature cellular senescence was induced by treating the keratinocytes with H2O2. For the H2O2 treatment, the cell culture media was replaced with phosphate buffered saline (PBS) supplemented with 150 μM of H2O2 . The cells were incubated in the H2O2 solution for two hours, after which they were washed once with PBS and then fresh media, either with or without test material, was applied to the cells. At these levels, the H2O2 treatment was not observed to have an impact on cell viability.
(§3) Relative changes in the amount of ATM and p53 expression were determined in the keratinocytes using ELISA based methods. […] After a sufficient level of color development was achieved the plate was read at 460 nm using a plate reader.

p53 = assay: H2O2 stress-induced premature senescence in epidermal keratinocytes, p53 expression (ELISA); settings: 1% treatment level, after 150 μM H2O2 for two hours, FIG. 3
Protocol: as §1, §2, §3

dermal papillae cells = assay: UV stress-induced premature senescence in dermal papillae cells measured by SA-β-Gal staining; settings: 20 mJ/cm^2 UVB, 48 hours, FIG. 4
Protocol: Human dermal papillae cells were seeded into 12 well plates in Dermal Papillae Growth Medium (DPGM) and grown at 37±2° C. and 5±1% CO2 until confluent with a media change every 48 to 72 hours as needed. Once the cells were confluent, the cell culture media was replaced with PBS and the cells were irradiated with 20 mJ/cm^2 UVB. After the UVB irradiation, the PBS was removed and replaced with cell culture media supplemented with the various test materials. Non-supplemented DPGM was used as the untreated control. One set of cells was not exposed to UVB and served as the non-UVB treated control. After the addition of the media, sets of cells were cultured for 48 hours. At the end of the incubation period the cells were obtained and assayed for changes in SA-β-Gal activity.
In a second set of studies, dermal papillae cells were grown and plated as described above. […] This was done to determine the effects of the test materials alone on the markers measured in this study.
After the 48 hour incubation, the cells were washed with PBS and then briefly fixed for 6-7 minutes in fixation buffer (2% formaldehyde and 0.2% glutaraldehyde in PBS). […] On the following day, the wells were examined microscopically and photographed so that the number of stained cells per field could be quantified. The number of positive staining cells in each field was counted. […]

Ogg1 = assay: Cellular expression of DNA repair enzyme Ogg1 in fibroblasts (microfiltration blot, immunodetection); settings: treatment level 0.1%, 24 hours, FIG. 5
Protocol: Human fibroblasts were seeded into culture flasks and grown at 37±2° C. and 5±1% CO2 using FGM. When a sufficient number of cells had been grown they were transferred to 24-well plates and cultured for a minimum of 24 hours to allow the cells to adhere to the well plates. The cells were then grown until confluent, with a media change every 48 to 72 hours.
The test materials were prepared in FGM. The media was then removed from the culture plates and replaced with 0.5 ml of media supplemented with test material, with each treatment being tested in triplicate. FGM alone served as the untreated control. After the application of the cell culture media, the plates were incubated for 24 hours at 37±2° C. and 5±1% CO2. At the end of the incubation period the culture media was removed and the cells were washed once with phosphate buffered saline. […] The protein concentration of the supernatant was determined using the BCA Protein Assay. […]
After the final wash, the membrane was placed into a BioRad Molecular Imager FX and scanned using an excitation laser and emission filter combination appropriate for the fluorophore. Images produced by the scanner were then analyzed using ImageJ image analysis software.
Fluorescence intensity measurements were expressed in Relative Fluorescence Units (RFU). Mean RFU values for each treatment were then calculated and treatments were compared using a one way ANOVA.

[1] = test system: intrinsically-aged dermal fibroblasts; assay: Delayed senescence in intrinsically-aged dermal fibroblasts measured by SA-β-Gal staining; settings: for expression of SA-β-Gal (number of stained cells) vs untreated cells: after 18 population doublings, FIG. 1
Protocol: The peptide isolated from Example 2 was employed to examine the ability of the peptide to delay senescence in dermal fibroblasts aged through a series of population doublings.
Human neonatal fibroblasts were obtained after primary culture (passage 1) and seeded into a set of T-75 flasks in 3 ml/flask of Fibroblast Growth Media (FGM) and grown at 37±2° C. and 5±1% CO2. The cells were expanded through 6 passages (one passage was defined as growing the cells until the flask was confluent and then splitting the cells 1:2, thus one passage was roughly equal to one population doubling). After the 6th passage, the fibroblasts were split into different treatment groups and treated with the various test materials through passage 18. At passage 18 a portion of the fibroblasts were used to assay changes in Senescence Associated-β-Galactosidase (SA-β-Gal), while the remaining fibroblasts were cultured for an additional week (approximately 2 additional passages) in the absence of test materials.
Prior to staining, the fibroblasts were washed once with PBS and then fixed for approximately 6 minutes in fixing solution (2% formaldehyde and 0.2% glutaraldehyde in PBS). After fixing, the cells were washed three times with PBS, followed by the addition of the staining solution (150 mM NaCl, 2 mM MgCl2, 40 mM citric acid (pH 6.0), 12 mM NaPO3, 5 mM potassium ferrocyanide, 5 mM potassium ferricyanide, and […] X-gal). The cells were then incubated at 37° C. overnight in a non-CO2 incubator. On the following day the staining solution was removed and replaced with PBS. The cells were then photographed microscopically and the number of stained cells (SA-β-Gal positive) in each field was counted.

## CN[C@@H](Cc1ccccc1)C(=O)N[C@H](C(=O)N[C@@H](C)C(=O)N1CCC[C@H]1C(=O)N[C@@H](Cc1ccccc1)C(=O)N1CCC[C@H]1C(=O)O)C(C)C [Hexapeptide, Phe-Val-Ala-Pro-Phe-Pro]
ATM
  expression of ATM protein vs prematurely senescent untreated keratinocytes: statistically delay senescence
p53
  expression of p53 protein vs prematurely senescent untreated keratinocytes: statistically delay senescence
Dermal papillae cells; 0.5% Hexapeptide
  SA-β-Gal expression (number of stained cells) after UV: statistically significant decrease
Dermal papillae cells; 1.0% Hexapeptide
  SA-β-Gal expression (number of stained cells) after UV: statistically significant decrease
Ogg1
  expression of Ogg1 (RFU) vs untreated control: statistically increase expression of Ogg1
[1]; 0.5% Hexapeptide treatment
  expression of SA-β-Gal (number of stained cells) vs untreated cells: untreated cells was statistically higher than that seen at 0.5 or 1.0% Hexapeptide treatment
[1]; 1.0% Hexapeptide treatment
  expression of SA-β-Gal (number of stained cells) vs untreated cells: untreated cells was statistically higher than that seen at 0.5 or 1.0% Hexapeptide treatment
[1]; 1% treatment
  expression of SA-β-Gal one week after removal of the Hexapeptide: increase but not yet back to normal
[1]; all treatments except the 1% treatment
  expression of SA-β-Gal one week after removal of the Hexapeptide: returns to normal
